Reference: patent publication US9278107B2, “Antibacterial agent composition and antiviral agent composition comprising silicon-containing compound; antibacterializing method, cleaning/mouth rinsing method; method for fixing antibacterial agent and antiviral agent” (Hiroshima University, priority 2008, dated 2016)

What was measured:
[1] = system: Escherichia coli WP2uvrA and Salmonella typhimurium TA series strains (TA100, TA1535, TA98 and TA1537); conditions: positive control
[2] = system: atypical (swine) influenza virus (type H1N1); type: cell-based
[3] = system: influenza virus A A/swan/Shimane/499/83(H5N3); type: cell-based, influenza virus A (avian); conditions: reacted with virus at room temperature for 3 minutes, diluted with DMEM, MDCK(+) cells, TCID50; (20 ppm)

Cl.Nc1c2ccccc2nc2ccccc12 [9-Aminoacridine hydrochloride]
number of reverse mutant colonies as compared with negative control [1]: remarkable increase

CCCCCCCCCCCCCCCCCC[N+](C)(C)CCC[Si](OCC)(OCC)OCC.[Cl-] [EtAC, octadecyldimethyl(3-triethoxysilylpropyl)ammonium chloride]
virus inactivating effect [2]: highly significant effects are found
EtAC dilution at which it is still effective [3]: 0.002%

[N-]=[N+]=[N-] [sodium azide]
number of reverse mutant colonies as compared with negative control [1]: remarkable increase

NC(=O)C(=Cc1ccc([N+](=O)[O-])o1)c1ccco1 [2-(2-furyl)-3-(5-nitro-2-furyl)acrylamide]
number of reverse mutant colonies as compared with negative control [1]: remarkable increase
